From patent US8022206B2 (OSI Pharmaceuticals, LLC, priority 2008, dated 2011)

Key:
RON (human) = RON (human) (Homo sapiens, UniProt Q04912); assay: RON (human) AlphaScreen kinase assay, Km of ATP; format: biochemical; details: AlphaScreen, Km of ATP; read-out: RON biochemical IC50
Outline: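 Reaction was started with enzyme and run 30 min at RT. PT66 donor/acceptor beads in an EDTA-containing Tris pH 7.5 buffer were then added, and the signal was read after 1 h.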

MET (human) = MET (human) (Homo sapiens, UniProt P08581); assay: MET (human) AlphaScreen kinase assay, Km of ATP; format: biochemical; details: AlphaScreen, Km of ATP; read-out: Met biochemical IC50
Sequence of MET (human) (P08581 25-1390): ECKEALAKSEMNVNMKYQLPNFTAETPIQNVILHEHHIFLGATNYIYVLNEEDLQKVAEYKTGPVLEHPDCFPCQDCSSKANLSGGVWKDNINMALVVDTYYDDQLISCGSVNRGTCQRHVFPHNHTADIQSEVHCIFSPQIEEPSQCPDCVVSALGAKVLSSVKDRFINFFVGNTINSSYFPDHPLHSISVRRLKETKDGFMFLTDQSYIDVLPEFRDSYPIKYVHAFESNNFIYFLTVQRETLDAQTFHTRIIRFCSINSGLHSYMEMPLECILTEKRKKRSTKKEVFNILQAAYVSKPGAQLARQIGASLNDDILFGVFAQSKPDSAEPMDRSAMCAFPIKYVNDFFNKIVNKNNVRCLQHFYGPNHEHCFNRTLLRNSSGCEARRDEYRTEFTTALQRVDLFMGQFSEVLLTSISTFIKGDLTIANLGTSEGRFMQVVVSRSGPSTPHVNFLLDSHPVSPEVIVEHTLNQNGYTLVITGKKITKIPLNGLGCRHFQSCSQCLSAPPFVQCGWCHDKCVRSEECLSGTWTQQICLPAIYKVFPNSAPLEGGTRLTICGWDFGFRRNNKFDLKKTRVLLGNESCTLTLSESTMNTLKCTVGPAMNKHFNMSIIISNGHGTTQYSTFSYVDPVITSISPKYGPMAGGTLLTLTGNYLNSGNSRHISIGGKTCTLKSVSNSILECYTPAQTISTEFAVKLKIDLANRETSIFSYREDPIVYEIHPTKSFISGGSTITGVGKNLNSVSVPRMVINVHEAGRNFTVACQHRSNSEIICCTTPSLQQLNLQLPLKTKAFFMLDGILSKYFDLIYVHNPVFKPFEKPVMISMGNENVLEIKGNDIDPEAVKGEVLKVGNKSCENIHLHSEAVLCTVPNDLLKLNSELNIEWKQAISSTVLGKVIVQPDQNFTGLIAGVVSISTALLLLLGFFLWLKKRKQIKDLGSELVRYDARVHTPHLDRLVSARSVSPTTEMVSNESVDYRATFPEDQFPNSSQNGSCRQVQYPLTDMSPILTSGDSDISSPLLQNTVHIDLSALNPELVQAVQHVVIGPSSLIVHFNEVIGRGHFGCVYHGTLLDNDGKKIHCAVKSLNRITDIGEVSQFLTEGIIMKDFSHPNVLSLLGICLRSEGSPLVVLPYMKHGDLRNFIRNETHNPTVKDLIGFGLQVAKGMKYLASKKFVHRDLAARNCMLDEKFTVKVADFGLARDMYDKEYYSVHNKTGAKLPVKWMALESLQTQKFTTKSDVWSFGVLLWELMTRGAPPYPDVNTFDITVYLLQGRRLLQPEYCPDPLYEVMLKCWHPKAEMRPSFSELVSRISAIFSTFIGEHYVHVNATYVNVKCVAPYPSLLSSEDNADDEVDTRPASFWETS
Outline: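 Human MET at lot-optimised concentration in 50 mM Tris pH 7.4 buffer with 1 mM DTT, compound at 1% DMSO final; enzyme starts the reaction, 60 min at RT.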

Sequence of RON (human) (Q04912 25-1400): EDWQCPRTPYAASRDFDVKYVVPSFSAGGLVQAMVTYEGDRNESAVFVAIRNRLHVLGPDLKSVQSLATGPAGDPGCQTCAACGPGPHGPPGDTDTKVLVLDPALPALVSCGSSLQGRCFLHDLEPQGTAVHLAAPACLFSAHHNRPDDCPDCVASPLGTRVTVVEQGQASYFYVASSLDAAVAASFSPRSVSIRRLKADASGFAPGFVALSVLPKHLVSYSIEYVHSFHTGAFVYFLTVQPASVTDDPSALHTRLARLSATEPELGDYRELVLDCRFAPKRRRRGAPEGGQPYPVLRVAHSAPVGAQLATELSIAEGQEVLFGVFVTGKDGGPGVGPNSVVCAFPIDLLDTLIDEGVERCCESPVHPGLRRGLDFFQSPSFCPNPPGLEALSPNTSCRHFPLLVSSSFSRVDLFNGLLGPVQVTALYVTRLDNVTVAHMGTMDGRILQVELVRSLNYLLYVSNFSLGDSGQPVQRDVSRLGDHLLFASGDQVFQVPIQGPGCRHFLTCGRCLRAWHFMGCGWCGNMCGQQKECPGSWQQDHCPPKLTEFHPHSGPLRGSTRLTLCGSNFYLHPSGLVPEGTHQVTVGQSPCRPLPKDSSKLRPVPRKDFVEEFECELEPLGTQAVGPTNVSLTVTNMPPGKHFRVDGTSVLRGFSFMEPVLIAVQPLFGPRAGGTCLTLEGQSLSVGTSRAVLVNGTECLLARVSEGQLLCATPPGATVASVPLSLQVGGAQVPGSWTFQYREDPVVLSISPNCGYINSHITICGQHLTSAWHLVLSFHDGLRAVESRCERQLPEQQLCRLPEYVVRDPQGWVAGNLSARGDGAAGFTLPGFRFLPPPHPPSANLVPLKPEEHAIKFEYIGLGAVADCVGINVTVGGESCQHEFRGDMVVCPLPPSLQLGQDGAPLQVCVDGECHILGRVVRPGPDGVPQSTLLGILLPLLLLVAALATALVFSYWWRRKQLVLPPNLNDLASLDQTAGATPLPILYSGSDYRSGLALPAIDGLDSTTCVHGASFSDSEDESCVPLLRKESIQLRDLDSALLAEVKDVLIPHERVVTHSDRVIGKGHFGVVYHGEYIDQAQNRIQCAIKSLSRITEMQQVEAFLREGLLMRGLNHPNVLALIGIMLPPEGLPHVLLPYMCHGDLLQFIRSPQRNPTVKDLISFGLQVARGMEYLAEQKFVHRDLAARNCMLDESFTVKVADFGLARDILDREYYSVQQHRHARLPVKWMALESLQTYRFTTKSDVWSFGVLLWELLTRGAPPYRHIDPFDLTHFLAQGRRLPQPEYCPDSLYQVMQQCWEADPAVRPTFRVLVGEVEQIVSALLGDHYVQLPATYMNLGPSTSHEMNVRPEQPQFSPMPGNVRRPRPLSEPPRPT

| IC50 (RON (human)) | IC50 (MET (human)) | Structure (SMILES) |
| --- | --- | --- |
| 500 to 5000 nM | 500 to 5000 nM | C[C@@H](Oc1c(N)ncc2c(-c3cccc(NS(=O)(=O)CCN(C)C)c3)coc12)c1c(Cl)ccc(F)c1Cl [Example 249, 2-Dimethylaminoethanesulfonic Acid (3-{6-amino-7-[(R)-1-(2,6-dichloro-3-fluorophenyl)ethoxy]furo[3,2-c]pyridin-3-yl}phenyl)amide] |
| 500 to 5000 nM | < 500 nM | CC(Cc1c(F)cccc1C(F)(F)F)Oc1c(N)ncc2c(-c3cnn(C4CCNCC4)c3)coc12 (stereo not shown) [Example 441, 7-[2-(2-Fluoro-6-trifluoromethylphenyl)-1-methylethoxy]-3-(1-piperidin-4-yl-1H-pyrazol-4-yl)furo[3,2-c]pyridin-6-ylamine] |
| 500 to 5000 nM | 500 to 5000 nM | CNC(=O)c1cccc(C(C)Oc2c(N)ncc3c(-c4cnn(C5CCNCC5)c4)coc23)c1 (stereo not shown) [Example 412, 3-{1-[6-Amino-3-(1-piperidin-4-yl-1H-pyrazol-4-yl)furo[3,2-c]pyridin-7-yloxy]ethyl}-N-methylbenzamide] |
| < 500 nM | < 500 nM | CC(Oc1c(N)ncc2c(-c3cnn(C4CCNCC4)c3)coc12)c1c(F)ccc(F)c1Cl (stereo not shown) [Example 379, 7-[1-(2-Chloro-3,6-difluorophenyl)ethoxy]-3-(1-piperidin-4-yl-1H-pyrazol-4-yl)furo[3,2-c]pyridin-6-ylamine] |
| < 500 nM | < 500 nM | C[C@@H](Oc1c(N)ncc2c(-c3ccc(CN4CCNCC4)s3)coc12)c1c(Cl)ccc(F)c1Cl [Example 217, 7-[(R)-1-(2,6-Dichloro-3-fluorophenyl)ethoxy]-3-(5-piperazin-1-ylmethylthiophen-2-yl)-furo[3,2-c]pyridin-6-ylamine] |
| < 500 nM | < 500 nM | C[C@@H](Oc1c(N)ncc2c(-c3cccc(CN4CCCCC4)c3)coc12)c1c(Cl)ccc(F)c1Cl [Example 91, 7-[(R)-1-(2,6-Dichloro-3-fluorophenyl)ethoxy]-3-(3-piperidin-1-ylmethylphenyl)furo[3,2-c]pyridin-6-ylamine] |
| 500 to 5000 nM | 500 to 5000 nM | C[C@@H](Oc1c(N)ncc2c(-c3cnn(C4CCNCC4)c3)c(C#N)oc12)c1c(Cl)ccc(F)c1Cl [Example 169, 6-Amino-7-[(R)-1-(2,6-dichloro-3-fluorophenyl)ethoxy]-3-(1-piperidin-4-yl-1H-pyrazol-4-yl)-furo[3,2-c]pyridine-2-carbonitrile] |
| 5000 to 20000 nM | < 500 nM | C[C@@H](Oc1c(N)ncc2c(-c3cnn(C4CCNCC4)c3)coc12)c1nnc2ccc(-c3cnn(C)c3)nn12 [Example 469, 7-{(1R)-1-[6-(1-methyl-1H-pyrazol-4-yl) [1,2,4]triazolo[4,3-b]pyridazin-3-yl]ethoxy}-3-[1-(piperidin-4-yl)-1H-pyrazol-4-yl]furo[3,2-c]pyridin-6-amine] |
| 500 to 5000 nM | 500 to 5000 nM | C[C@@H](Oc1c(N)ncc2c(-c3ccc(C(=O)N4CCC(O)CC4)cc3)coc12)c1c(Cl)ccc(F)c1Cl [Example 296, (4-{6-Amino-7-[(R)-1-(2,6-dichloro-3-fluorophenyl)ethoxy]furo[3,2-c]pyridin-3-yl}phenyl)-(4-hydroxypiperidin-1-yl)methanone] |
| < 500 nM | < 500 nM | CC(Oc1c(N)ncc2c(-c3cnn(C4CCNCC4)c3)coc12)c1c(Cl)c(F)cc(OC2CCNCC2)c1Cl (stereo not shown) [Example 158, 7-{1-[2,6-Dichloro-3-fluoro-5-(piperidin-4-yloxy)phenyl]ethoxy}-3-[1-(piperidin-4-yl)-1H-pyrazol-4-yl]furo[3,2-c]pyridin-6-amine] |

The next lines start with the compound.

| Structure (SMILES) | IC50 (RON (human)) | IC50 (MET (human)) |
| --- | --- | --- |
| CC(C)NC(=O)N1CC=C(c2coc3c(O[C@H](C)c4c(Cl)ccc(F)c4Cl)c(N)ncc23)CC1 [Example 149, 4-{6-Amino-7-[(1R)-1-(2,6-dichloro-3-fluorophenyl)ethoxy]furo[3,2-c]pyridin-3-yl}-N-(propan-2-yl)-3,6-dihydropyridine-1(2H)-carboxamide] | 500 to 5000 nM | < 500 nM |
| C[C@@H](Oc1c(N)ncc2c(C(=O)O)coc12)c1c(Cl)ccc(F)c1Cl [Example 176, 6-Amino-7-[(R)-1-(2,6-dichloro-3-fluorophenyl)ethoxy]furo[3,2-c]pyridine-3-carboxylic acid] | 5000 to 20000 nM | 500 to 5000 nM |
| C[C@@H](Oc1c(N)ncc2c(C3=CC4CCC(C3)N4)coc12)c1c(Cl)ccc(F)c1Cl (stereo partly drawn) [Example 153, 3-(8-Azabicyclo[3.2.1]oct-2-en-3-yl)-7-[(1R)-1-(2,6-dichloro-3-fluorophenyl)ethoxy]furo[3,2-c]pyridin-6-amine] | 500 to 5000 nM | < 500 nM |
| C[C@@H](Oc1c(N)ncc2c(C(=O)NC3CCN(C(=O)OC(C)(C)C)CC3)coc12)c1c(Cl)ccc(F)c1Cl [Example 181, 4-({6-Amino-7-[(R)-1-(2,6-dichloro-3-fluorophenyl)ethoxy]furo[3,2-c]pyridine-3-carbonyl}-amino)-piperidine-1-carboxylic acid tert-butyl ester] | 5000 to 20000 nM | 500 to 5000 nM |
| CCCCS(=O)(=O)Nc1cccc(-c2coc3c(O[C@H](C)c4c(Cl)ccc(F)c4Cl)c(N)ncc23)c1 [Example 246, Butane-1-sulfonic acid (3-{6-amino-7-[(R)-1-(2,6-dichloro-3-fluorophenyl)ethoxy]-furo[3,2-c]pyridin-3-yl}phenyl)amide] | 5000 to 20000 nM | 500 to 5000 nM |
| C[C@@H](Oc1c(N)ncc2c(-c3ccc(OCCCN(C)C)nc3)coc12)c1c(Cl)ccc(F)c1Cl [Example 122, 7-[(R)-1-(2,6-Dichloro-3-fluorophenyl)ethoxy]-3-[6-(3-dimethylaminopropoxy)pyridin-3-yl]furo[3,2-c]pyridin-6-ylamine] | < 500 nM | < 500 nM |
| C[C@@H](Oc1c(N)ncc2c(-c3ccc(CN4CCCC4)s3)coc12)c1c(Cl)ccc(F)c1Cl [Example 213, 7-[(R)-1-(2,6-Dichloro-3-fluorophenyl)ethoxy]-3-(5-pyrrolidin-1-ylmethylthiophen-2-yl)-furo[3,2-c]pyridin-6-ylamine] | < 500 nM | < 500 nM |
| C[C@@H](Oc1c(N)ncc2c(C3=CCN(C(=O)C(N)C(F)(F)F)CC3)coc12)c1c(Cl)ccc(F)c1Cl (stereo partly drawn) [Example 260, 2-Amino-1-[4-{6-amino-7-[(1R)-1-(2,6-dichloro-3-fluorophenyl)-ethoxy]furo[3,2-c]pyridin-3-yl}-3,6-dihydropyridin-1(2H)-yl]-3,3,3-trifluoropropan-1-one] | 500 to 5000 nM | 500 to 5000 nM |
| C[C@@H](Oc1c(N)ncc2c(C3=CCN(C(=O)[C@H](O)C(F)(F)F)CC3)coc12)c1c(Cl)ccc(F)c1Cl [Example 269, (2S)-1-[4-{6-Amino-7-[(1R)-1-(2,6-dichloro-3-fluorophenyl)ethoxy]furo[3,2-c]pyridin-3-yl}-3,6-dihydropyridin-1(2H)-yl]-3,3,3-trifluoro-2-hydroxypropan-1-one] | 500 to 5000 nM | 500 to 5000 nM |
| Cc1cscc1-c1coc2c(O[C@H](C)c3c(Cl)ccc(F)c3Cl)c(N)ncc12 [Example 111, 7-[(R)-1-(2,6-Dichloro-3-fluorophenyl)ethoxy]-3-(4-methylthiophen-3-yl)furo[3,2-c]pyridin-6-ylamine] | 500 to 5000 nM | 500 to 5000 nM |
